Patent US20230382904A1, “SUBSTITUTED 4-([1,2,4]TRIAZOLO[1,5-a]PYRIDIN-6-YL)THIOPHENE-2-CARBOXAMIDE DERIVATIVES AND USE THEREOF” (The Johns Hopkins University, priority 2020, published 2023)

Assays:
DLK = DLK (Homo sapiens (Human), UniProt Q12852); test: DLK biochemical assay (TR-FRET, MKK7 phosphorylation)
Experimental: DLK assay is a biochemical assay format designed to screen for inhibitors of DLK. Enzymatic activity of DLK was measured by monitoring phosphorylation of the physiological substrate MKK7 (MAP2K7, Dual specificity mitogen-activated protein kinase kinase 7). Phosphorylation was detected by a TR-FRET system whereby His-tagged MKK7 was labeled by a XL665-labeled anti-His antibody (FRET acceptor, emission 665 nm). DLK phosphorylates MKK7 at T275/S277, which was detected by an Eu-labeled anti-phospho-MKK7 (T275/S277) antibody (F RET donor, excitation 340 nm). Phosphorylation of MKK7 results in an increased TR-FRET signal (Ratio XL665-channel/Eu-channel) and inhibition of enzymatic activity of DLK decreases the TR-FRET signal.
Assay Protocol for 1536 MTP format: test compounds were predispensed (60 nl) in test plates; +3 μl DLK solution (10 nM DLK, catalytic domain, Carna Biosiences, 0.6 mM DTT in assay buffer); +2 μl substrate solution (15 nM MKK7, LDB; 60 μM ATP; 0.4 mM DTT in assay buffer); 90 min incubation at RT; +2 μl detection mix (5 nM XL665-labeled anti-His antibody, Cisbio; 0.1 nM Eu-labeled anti-phospho-MKK7 (T275/S277), Cisbio/Millipore in detection buffer); 16 h incubation at 37° C.; endpoint measurement BMG (HTRF).
Assay Protocol for 384 low volume MTP format: 1 μl of test compounds were pipetted into test plate; +5 μl DLK solution (10 nM DLK, catalytic domain, Carna Biosiences in assay buffer); +5 μl substrate solution (15 nM MKK7, LDB; 60 μM ATP, in assay buffer); 90 min incubation at RT; +9 μl detection mix (20 nM XL665-labeled anti-His antibody, Cisbio; 0.4 nM Eu-labeled anti-phospho-MKK7 (T275/S277), Cisbio/Millipore in detection buffer); 16 h incubation at 4° C.; endpoint measurement BMG (HTRF).
(§1) All indicated concentrations final concentrations.
Assay buffer (384 format): 50 mM Hepes pH 7.5, 10 mM MgCl2, 1 mM EGTA, 1 mM DTT, 0,01% Triton X-100, 0.01% BSA, 1:500 Smart Block.
(§2) Detection buffer: 25 mM Tris/HCl pH 7.5, 100 mM EDTA, 100 mM NaCl, 200 mM KF, 0.01% Tween 20, 1:500 Smart Block.

LZK = LZK (Homo sapiens (Human), UniProt O43283); test: LZK biochemical assay (TR-FRET, MKK7 phosphorylation)
LZK, sequence (O43283 168-409): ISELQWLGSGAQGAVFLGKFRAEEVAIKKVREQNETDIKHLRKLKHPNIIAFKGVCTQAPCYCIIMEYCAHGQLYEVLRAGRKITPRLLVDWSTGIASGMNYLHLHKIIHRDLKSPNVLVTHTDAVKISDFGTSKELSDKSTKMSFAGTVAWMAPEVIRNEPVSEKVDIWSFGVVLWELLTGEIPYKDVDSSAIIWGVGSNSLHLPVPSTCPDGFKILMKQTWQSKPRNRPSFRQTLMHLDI
Experimental: LZK assay is a biochemical assay format designed to screen for inhibitors of LZK. Enzymatic activity of LZK was measured by monitoring phosphorylation of the physiological substrate MKK7 (MAP2K7, Dual specificity mitogen-activated protein kinase kinase 7). Phosphorylation was detected by a TR-FRET system whereby His-tagged MKK7 was labeled by a XL665-labeled anti-His antibody (FRET acceptor, emission 665 nm). LZK phosphorylates MKK7 at T275/S277 which were detected by an Eu-labeled anti-phospho-MKK7 (T275/S277) antibody (FRET donor, excitation 340 nm). Phosphorylation of MKK7 results in an increased TR-FRET signal (Ratio XL665-channel/Eu-channel) and inhibition of enzymatic activity of LZK decreases the TR-FRET signal.
Assay Protocol for 384 low volume MTP format: 1 μl of test compound was pipetted into test plate; +5 μl LZK solution (10 nM LZK, catalytic domain, Carna Biosiences in assay buffer); +5 μl substrate solution (15 nM MKK7, LDB; 15 μM ATP, in assay buffer); 90 min incubation at RT; +5 μl detection mix (20 nM XL665-labeled anti-His antibody, Cisbio; 0.4 nM Eu-labeled anti-phospho-MKK7 (T275/S277), Cisbio/Millipore in detection buffer), 16 h incubation at 32° C.; endpoint measurement BMG (HTRF).
as §1
Assay buffer (384 format): 50 mM Hepes pH 7.5, 10 mM MgCl2, 1 mM EGTA, 1 mM DTT, 0.01% Triton X-100, 0.01% BSA, 1:500 Smart Block.
as §2

DLK, sequence (Q12852 1-520): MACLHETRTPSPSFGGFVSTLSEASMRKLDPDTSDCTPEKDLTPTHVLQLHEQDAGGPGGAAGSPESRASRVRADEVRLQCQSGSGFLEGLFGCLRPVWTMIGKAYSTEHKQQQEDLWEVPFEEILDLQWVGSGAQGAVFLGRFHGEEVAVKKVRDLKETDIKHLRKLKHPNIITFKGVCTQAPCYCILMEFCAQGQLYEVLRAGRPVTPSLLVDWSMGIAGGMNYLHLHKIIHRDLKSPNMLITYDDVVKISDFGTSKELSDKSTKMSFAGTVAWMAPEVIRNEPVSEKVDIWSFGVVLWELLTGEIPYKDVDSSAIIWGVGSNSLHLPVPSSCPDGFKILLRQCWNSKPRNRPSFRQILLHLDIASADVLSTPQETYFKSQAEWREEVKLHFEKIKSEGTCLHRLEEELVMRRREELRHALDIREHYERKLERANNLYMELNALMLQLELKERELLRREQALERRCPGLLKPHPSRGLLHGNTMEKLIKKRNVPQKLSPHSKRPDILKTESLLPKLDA

Row | SMILES | IC50 (DLK) [nM] | IC50 (LZK) [nM]
1 | CN(C)C(=O)c1cc(-c2csc(C(=O)NCc3ccc(F)cc3)c2)cn2nc(N)nc12 [Compound 1] | 20000 | > 30000
2 | COc1cccc(CNC(=O)c2cc(-c3cc(C(=O)N(C)C)c4nc(N)nn4c3)cs2)c1 [Compound 2] | 18000 | > 30000
3 | CCNC(=O)c1cc(-c2csc(C(=O)NCc3ccccc3)c2)cn2nc(N)nc12 [Compound 5] | 160 | 1200
4 | CCNC(=O)c1cc(-c2csc(C(=O)NCc3cccc(OC)c3)c2)cn2nc(N)nc12 [Compound 6] | 84 | 1100
5 | CCNC(=O)c1cc(-c2csc(C(=O)NCc3ccc(F)cc3)c2)cn2nc(N)nc12 [Compound 7] | 87 | 480
6 | CNC(=O)c1cc(-c2csc(C(=O)NCc3cccc(OC)c3)c2)cn2nc(N)nc12 [Compound 8] | 140 | 2200
7 | CNC(=O)c1cc(-c2csc(C(=O)NCc3ccc(F)cc3)c2)cn2nc(N)nc12 [Compound 9] | 130 | 1200
8 | CNC(=O)c1cc(-c2csc(C(=O)NCc3ccccc3)c2)cn2nc(N)nc12 [Compound 10] | 120 | 990
9 | CC(C)NC(=O)c1cc(-c2csc(C(=O)NCc3ccccc3)c2)cn2nc(N)nc12 [Compound 11] | 17 | 90
10 | CC(C)NC(=O)c1cc(-c2csc(C(=O)NC3CCCCC3)c2)cn2nc(N)nc12 [Compound 12] | 21 | 400
11 | COc1cccc(CNC(=O)c2cc(-c3cc(C(=O)NC(C)(C)C)c4nc(N)nn4c3)cs2)c1 [Compound 13] | 34 | 140

More lines, now with the values ahead:

Row | IC50 (DLK) [nM] | IC50 (LZK) [nM] | SMILES
12 | 89 | 6200 | CC(NC(=O)c1cc(-c2csc(C(=O)N[C@@H](C)c3ccccc3)c2)cn2nc(N)nc12)C(F)(F)F (single isomer, unassigned) [Compound 72]
13 | 23 | 200 | CC[C@H](NC(=O)c1cc(-c2cc(C(=O)NC(C)CF)c3nc(N)nn3c2)cs1)c1ccc(F)cc1 (single isomer, unassigned) [Compound 144-2]
14 | 880 | > 30000 | C[C@H]1CCC[C@@H](NC(=O)c2cc(-c3ccc4nc(N)nn4c3)cs2)C1 (single isomer, unassigned) [Compound 165]
15 | 1250 | > 30000 | C[C@H]1CCC[C@H](NC(=O)c2cc(-c3ccc4nc(N)nn4c3)cs2)C1 (single isomer, unassigned) [Compound 198]
16 | 1200 | > 30000 | C[C@H]1CCC[C@H](NC(=O)c2cc(-c3ccc4nc(N)nn4c3)cs2)C1 (single isomer, unassigned) [Compound 199]
17 | 560 | > 30000 | C[C@H]1CCC[C@@H](NC(=O)c2cc(-c3ccc4nc(N)nn4c3)cs2)C1 (single isomer, unassigned) [Compound 200]
18 | 3.3 | 48 | COC[C@H](NC(=O)c1cc(-c2cc(C(=O)NC(C)C)c3nc(N)nn3c2)cs1)c1ccccc1 (stereo in doubt) [Compound 91]
19 | 34 | 270 | CC(C)(C)NC(=O)c1cc(-c2csc(C(=O)NC3CCCCC3)c2)cn2nc(N)nc12 [Compound 14]
20 | 58 | 150 | CC(C)(C)NC(=O)c1cc(-c2csc(C(=O)NCc3ccc(F)cc3)c2)cn2nc(N)nc12 [Compound 15]
21 | 37 | 130 | CC(C)(C)NC(=O)c1cc(-c2csc(C(=O)NCc3ccccc3)c2)cn2nc(N)nc12 [Compound 16]
22 | 31 | 150 | C[C@H](NC(=O)c1cc(-c2cc(C(=O)NC(C)(C)C)c3nc(N)nn3c2)cs1)c1ccc(F)cc1 [Compound 17]
23 | 12 | 110 | C[C@H](NC(=O)c1cc(-c2cc(C(=O)NC(C)(C)C)c3nc(N)nn3c2)cs1)c1ccccc1 [Compound 18]
24 | 6.32 | 122 | CC(C)NC(=O)c1cc(-c2csc(C(=O)N[C@@H](C)c3ccccc3)c2)cn2nc(N)nc12 [Compound 20]
